Measurements published in patent US6921772B2, “Methods and compositions for the treatment of chronic lymphocytic leukemia” (Salmedix, Inc., priority 1998, dated 2005).

Key:
[1] = system: normal human adherent mononuclear cells; assay: Uptake of TAMRA stained patient mononuclear cells by normal adherent mononuclear cells (phagocytosis), flow cytometry; format: cell-based
Protocol: To examine the possibility that a metabolite of etodolac or a serum factor may be necessary to achieve the clinical effect, the in vivo percentages of viable, apoptotic and late apoptotic or necrotic cells of isolated mononuclear cells were measured by flow cytometry using FITC annexin and propridium iodide assay. During early apoptosis and preceding DNA fragmentation, phosphatydylserine becomes exposed and bond by annexin V. Later in apoptosis and in cell necrosis, cells also become permeable to propidium iodide. FITC labeled […] and propidium iodide are easily detected by flow cytometry. Mononuclear cells were isolated from the peripheral blood of the patient by differential centrifugation on ficoll-Hypaque at baseline and then daily for three additional days after administration of etodolac. […] However, the percentage of viable cells increased and the percentage of late apoptotic or necrotic cells decreased. […] After an overnight incubation, the adherent cells were isolated and analyzed by flow cytometry for uptake of TAMRA stained cells from the patient. No increase in the uptake of the stained leukemic mononuclear cells by the normal adherent cells could be detected for etodolac compared to naproxen. […]

patient with B-cell CLL = assay: In vivo administration of NSAIDs to a B-cell CLL patient: blood cell counts
[2] = system: isolated mononuclear cells from the peripheral blood of the patient; assay: FITC annexin / propidium iodide flow cytometry of the patient's isolated mononuclear cells after etodolac; format: in vivo, human; settings: baseline and daily for three days after administration, as lymphocyte count dropped
Protocol: To examine the possibility that a metabolite of etodolac or a serum factor may be necessary to achieve the clinical effect, the in vivo percentages of viable, apoptotic and late apoptotic or necrotic cells of isolated mononuclear cells were measured by flow cytometry using FITC annexin and propridium iodide assay. During early apoptosis and preceding DNA fragmentation, phosphatydylserine becomes exposed and bond by annexin V. Later in apoptosis and in cell necrosis, cells also become permeable to propidium iodide. FITC labeled […] and propidium iodide are easily detected by flow cytometry. Mononuclear cells were isolated from the peripheral blood of the patient by differential centrifugation on ficoll-Hypaque at baseline and then daily for three additional days after administration of etodolac. […] However, the percentage of viable cells increased and the percentage of late apoptotic or necrotic cells decreased. […] To examine the possibility that etodolac might enhance the clearance of leukemic lymphocytes by enhancing phagocytosis by macrophages, TAMRA stained isolated mononuclear cells from the patient were incubated with normal human adherent mononuclear cells in the presence of naproxen or etodolac in vitro. After an overnight incubation, the adherent cells were isolated and analyzed by flow cytometry for uptake of TAMRA stained cells from the patient. No increase in the uptake of the stained leukemic mononuclear cells by the normal adherent cells could be detected for etodolac compared to naproxen. To test the possibility that a metabolite of etodolac could be responsible for the effect, serum from the patient was collected free of drug, after receiving naproxen 375 mg bid for two days and after receiving etodolac 400 mg bid for two days, and tested in the above manner.

[3] = B-cell CLL patient, count after NSAID course, etodolac 300 mg BID, mean +/- SD of 3 experiments

SMILES | effect on lymphocyte count of the patient (in words) (patient with B-cell CLL; summary of Table 1) | effect on white blood cell count of the patient (in words) (patient with B-cell CLL; summary of Table 1) | also measured
CCc1cccc2c3c([nH]c12)C(CC)(CC(=O)O)OCC3 (racemic) [Etodolac, 1,8-diethyl-1,3,4,9-tetrahydro[3,4-b]-indole-1-acetic acid] | substantial reductions | substantial reductions | uptake of stained leukemic mononuclear cells by normal adherent cells ([1]; drug present in vitro, overnight incubation, compared to naproxen): No increase; phagocytosis of lymphocytes with patient serum ([1]; serum collected after etodolac 400 mg bid for two days, compared with drug-free serum and serum after naproxen 375 mg bid): No enhancement; Lymphocyte Ct. x E-3 (patient with B-cell CLL; [3]): 20.68 x E-3; Neutrophil Count x E-3 (patient with B-cell CLL; [3]): 3.58 x E-3; WBC Count x E-3 (patient with B-cell CLL; [3]): 25.27 x E-3; platelet count (in words) (patient with B-cell CLL; Oct. 28, 1997, after 300 mg BID Oct. 25-27, 1997): normal; lymphocyte count (patient with B-cell CLL; Oct. 28, 1997, after 300 mg BID Oct. 25-27, 1997, count before treatment 27.44×E3): 6.70 ×E3; white blood cell count (patient with B-cell CLL; Oct. 28, 1997, after 300 mg BID Oct. 25-27, 1997, count before treatment 34.3×E3): 13.40 ×E3; effect on platelet count (in words) (patient with B-cell CLL; summary of Table 1): increased significantly; percentage of apoptotic cells [2]: remained the same; percentage of late apoptotic or necrotic cells [2]: decreased; percentage of viable cells [2]: increased
O=C(O)Cc1ccccc1Nc1c(Cl)cccc1Cl [Diclofenac, diclofenac] | relatively little impact | relatively little impact | –
CC(C)Cc1ccc(C(C)C(=O)O)cc1 (stereo not shown) [Ibuprofen, ibuprofen] | relatively little impact | – | –
COc1ccc2c(c1)c(CC(=O)O)c(C)n2C(=O)c1ccc(Cl)cc1 [Indomethacin, indomethacin] | relatively little impact | relatively little impact | –
COc1ccc2cc(CCC(C)=O)ccc2c1 [Nabumetone, nabumetone] | relatively little impact | relatively little impact | –
COc1ccc2cc([C@H](C)C(=O)O)ccc2c1 [Naproxen, naproxen] | relatively little impact | relatively little impact | –
O=C(O)CCc1nc(-c2ccccc2)c(-c2ccccc2)o1 [Oxaprozin, oxaprozin] | relatively little impact | relatively little impact | –
CN1C(C(=O)Nc2ccccn2)=C(O)c2ccccc2S1(=O)=O [Piroxicam, piroxicam] | relatively little impact | relatively little impact | –
CC1=C(CC(=O)O)c2cc(F)ccc2/C1=C\c1ccc([S+](C)[O-])cc1 (stereo not shown) [Sulindac, sulindac] | relatively little impact | relatively little impact | –
Cc1ccc(C(=O)c2ccc(CC(=O)O)n2C)cc1 [Tolmetin, tolmetin] | relatively little impact | relatively little impact | –
